The text below walks through data of article PMC12566046, “Arylpiperazinyl-Benzocycloheptapyrrole-Carboxamides Endowed with Dual Anticancer and Antiviral Activities” (Molecules, 2025).

The subject of data set [1] is NCI-H460 (non-small cell lung cancer). The data set can be described thus: NCI-60 five-dose assay. The format is cell-based. Particulars: Homo sapiens, five-dose screen.
The next data set relates to SF-295 (CNS cancer). The data set can be described thus: NCI-60 five-dose assay. Type of data set: cell-based. The note with it: Homo sapiens, five-dose screen.
Data set [2] concerns MDCK cells. Particulars: dog.
The next data set can be described thus: in vitro. Particulars: human.
Data set [3] has as its system OVCAR-4 (ovarian cancer cell line). The data set can be described thus: NCI-60 single-dose assay. Type of data set: cell-based, human. Summed up: (§1)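 Single-dose cytotoxicity test run in the NCI-60 panel of human cancer cell lines. Threshold inhibition criteria across a minimum number of lines decided progression to five-dose testing.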
The subject of data set [4] is PC-3 (prostate cancer cell line). The data set can be described thus: NCI-60 single-dose assay. The format is cell-based, human. Summed up:
as §1

The test system of data set [5] is cell line (breast cancer). The data set can be described thus: NCI-60 single-dose assay. The note with it: Homo sapiens, HS%/(T cell line), 10^−5 M, read-out: growth inhibition (GI%). The format is cell-based. The gist of the method:
as §1

Data set [6] deals with MDCK cells. Nature of the data set: Cytotoxicity on uninfected MDCK cells (WST-8, crystal violet). Particulars: read-out: IAV/MDCK CC50; preliminary screening (50, 5, 0.5 μM), MDCK. (Formazan colour is commonly taken as a measure of viable cells.)
For data set [7], the system named is HOP-92 (non-small cell lung cancer). The data set can be described thus: NCI-60 five-dose assay. Type of data set: cell-based, human. The note with it: five-dose screen. The source says: (§2) We first evaluated the cytotoxic activity of tricyclic-pyrrole carboxamides 1–20 using the NCI-60 cell line panel, representing nine different human cancers: leukemia, melanoma, and cancers of the lung, colon, central nervous system (CNS), ovary, kidney, prostate, and breast (the one-dose graph for compounds 1–20 is reported in Supplementary Materials, Figures S43–S62). Compounds 1, 5, 10, 11, 17, and 20 satisfied pre-determined threshold inhibition criteria in a minimum number of cell lines; therefore, they were also tested in the full five-dose assay (Figures S63–S68 in the Supplementary Materials).
(§3) Due to these preliminary results, six compounds, 1, 5, 10, 11, 17, and 20, were selected for the five-dose screen NCI-programme against the same panel of tumour cell lines.

The subject of the next data set is MCF-7 (breast cancer). The data set can be described thus: NCI-60 five-dose assay. Type of data set: cell-based, human. The note with it: five-dose screen.
From the text: as §2, §3

The term GI50 denotes the concentration at which growth is held to half of that of the control. For `CCN1CCC[C@H]1CNC(=O)c1[nH]c2c(c1Cl)CCCc1ccccc1-2` [Compound 1, (S)-3-Chloro-N-(1-ethyl-2-pyrrolidinylmethyl)-5,6-dihydro-4H-benzo[6,7]cyclohepta[1,2-b]pyrrol-2-carboxamide], the GI50 in [1] turned out to be 2030 nM; in the data set on SF-295 (CNS cancer) it was 1890 nM.
As to `O=C(NCCN1CCN(c2ccc(Cl)cc2)CC1)c1c(Cl)[nH]c2c1CCCc1ccccc1-2` [Compound 13], the “IAV/MDCK CC50” value with MDCK cells [2] was 225.00 µM. The compound further returned a CC50 in “in vitro” of 62.2 µM.
In the case of `COc1ccccc1N1CCN(CCNC(=O)c2c(Cl)[nH]c3c2CCCc2ccccc2-3)CC1` [Compound 15], the figures for the “growth inhibition (GI%)” value in data set [3] and in [4] were 66.06% and 75.11%, respectively.
What is called inhibition is how much of the control response was suppressed. Regarding `O=C(NCCCN1CCN(Cc2ccccc2)CC1)c1c(Cl)[nH]c2c1CCCc1ccccc1-2` [Compound 20, N-(3-(4-Benzylpiperazin-1-yl)propyl)-2-chloro-1,4,5,6-tetrahydrobenzo[6,7]cyclohepta[1,2-b]pyrrole-3-carboxamide], in data set [5], the inhibition at 10 µM was 72.4%.
On to “N-(3-(4-Benzylpiperazin-1-yl)propyl)-2-chloro-1,4,5,6-tetrahydrobenzo[6,7]cyclohepta[1,2-b]pyrrole-2-carboxamide [Compound 11]”, for which, in the data set on MDCK cells [6], the CC50 was determined as 5.38 µM. For the same compound, the figures for the GI50 (in data set [7]; with MCF-7 (breast cancer)) were 2720 nM and 2770 nM, respectively.
